These are literature values, as cited in patent US20040120995A1, “Transdermal delivery of pergolide” (priority 2003, published 2004).

Counter-ions that a name gives are not always drawn. Like-named read-outs stand apart in the source and are kept apart here.

For the data set the following is noted: for Pergolide Blood Serum Level: human subjects.

Regarding `CCCN1C[C@H](CSC)C[C@@H]2c3cccc4[nH]cc(c34)C[C@H]21` [pergolide mesylate], where the note is “2-3 hours following a 2.5 mg oral dose”, the “maximum blood serum level” value is on record as “about 500 picograms/ml”. The blood serum level entry (8 hours following a 0.5 mg oral dose) is on record as “about 60 picograms/ml”. For the same compound, the “Pergolide Blood Serum Level” value (oral dose 0.25 milligrams) is recorded as 47.75 picograms/ml; the “Pergolide Blood Serum Level” value (oral dose 0.50 milligrams) is 100.08 picograms/ml; the “Pergolide Blood Serum Level” value (oral dose 1.00 milligrams) was 199.33 picograms/ml; the “Pergolide Blood Serum Level” value (oral dose 2.00 milligrams) is on record as 398.66 picograms/ml; the “Pergolide Blood Serum Level” value (oral dose 3.00 milligrams) was 597.99 picograms/ml. Moreover, the peak serum concentration entry (oral dosing 3 mg/24 hours, divided into three doses) is “approximately 200 pg/ml”.
